Measured values reported in patent US9156811B2 (priority 2008, dated 2015).
Where two headings read alike, the source gives them in different places.

How the values were obtained:
[1] = tested on: Trypanosome (T. brucei brucei); assay: In-vitro antitrypanosomal efficacy assay (cell growth, resazurin); format: cell-based; conditions: T. brucei cell growth
Method: To column 12, 200 μl media was added to provide a no cells control. Plates were then incubated at 37° C. in an atmosphere of 5% CO2 for 69 hours, before the addition of 20 μl of 500 μM rezasurin solution, and a further incubation period of 4 hours. […] Concentration effect curves were fitted using non-linear regression using XLFit 4.2 and EC50 values determined.

[2] = target: T. brucei N-myristoyl transferase (Trypanosoma brucei brucei (strain 927/4 GUTat10.1), UniProt Q388H8); assay: biochemical; format: biochemical; conditions: read-out: IC50 (μM) NMT Enzyme
T. brucei N-myristoyl transferase, sequence (Q388H8 1-446): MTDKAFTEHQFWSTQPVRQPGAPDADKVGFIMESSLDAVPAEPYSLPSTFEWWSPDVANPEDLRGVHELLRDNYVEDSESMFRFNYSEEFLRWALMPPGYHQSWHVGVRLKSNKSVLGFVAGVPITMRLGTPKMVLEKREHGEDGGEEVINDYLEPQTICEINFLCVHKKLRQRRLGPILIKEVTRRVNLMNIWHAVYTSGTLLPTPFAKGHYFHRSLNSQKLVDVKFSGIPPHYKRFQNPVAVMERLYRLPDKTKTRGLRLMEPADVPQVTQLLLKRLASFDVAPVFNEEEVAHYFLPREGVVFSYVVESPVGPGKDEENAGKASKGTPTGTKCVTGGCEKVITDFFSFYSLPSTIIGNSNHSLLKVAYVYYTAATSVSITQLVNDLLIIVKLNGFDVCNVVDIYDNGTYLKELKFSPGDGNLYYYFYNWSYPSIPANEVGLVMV

[3] = value printed without enzyme tag in the NMT Enzyme column (taken as T. brucei NMT)
[4] = value with no enzyme tag in the cell, taken as T. brucei NMT

Row | SMILES | ED50 (μM) T. brucei [1] | IC50 [2, 3] | IC50 [2, 4]
1 | Cc1nn(C)c(C)c1N[S+](=O)([O-])c1ccc(CNc2ccncn2)cc1 [DDD73504] | >1 µM | 4.2 µM | –
2 | Cc1nn(C)c(C)c1N[S+](=O)([O-])c1ccc(NC2Cc3ccccc3C2)nc1 [DDD73478] | 4.5 µM | 0.36 µM | –
3 | Cc1nn(C)c(C)c1N[S+](=O)([O-])c1ccc(N(C)CCCN(C)C)nc1 [DDD85626] | 1.9 µM | 0.61 µM | –
4 | COc1cc(C)c([S+](=O)([O-])NCc2c(C)nn(C)c2C)c(C)c1C [DDD71296] | >1 µM | > 100 µM | –
5 | Cc1nn(C)c(C)c1N[S+](=O)([O-])c1ccc(NCc2ccc3[nH]ccc3c2)nc1 [DDD73332] | 3.2 µM | 0.34 µM | –
6 | Cc1nn(C)c(C)c1N[S+](=O)([O-])c1ccc2ccccc2c1 [DDD71246] | >1 µM | 8.4 µM | –
7 | Cc1nn(C)c(C)c1N[S+](=O)([O-])c1ccc([S+](C)(=O)[O-])cc1 [DDD73241] | >1 µM | 4.2 µM | –
8 | Cc1c(N[S+](=O)([O-])c2ccc(-c3cccc(CN4CCN(C)CC4)c3)cc2)c(CC(C)C)nn1C [DDD99736] | 0.41 µM | – | 0.068 µM
9 | Cc1nn(C)c(C)c1N[S+](=O)([O-])c1c(C)c(C)c(C)c(C)c1C [DDD71248] | >1 µM | 62.5 µM | –
10 | Cc1nn(C)c(C)c1N[S+](=O)([O-])c1ccc(CNC2CCc3ccccc32)cc1 (stereo not drawn) [DDD85592] | >1 µM | 44 µM | –
11 | Cc1nn(C)c(C)c1N[S+](=O)([O-])c1cccc2cccnc12 [DDD71283] | >1 µM | 7.4 µM | –
12 | Cc1ncccc1N[S+](=O)([O-])c1ccc(NCc2ccc3[nH]ccc3c2)nc1 [DDD85611] | >1 µM | 7.2 µM | –
13 | Cc1nn(C)c(C)c1N[S+](=O)([O-])c1ccc(N[C@H](C)c2ccc3ccccc3c2)nc1 [DDD73486] | >1 µM | 2.8 µM | –
14 | Cc1nn(C)c(C)c1N[S+](=O)([O-])c1ccc(N2CCOCC2)nc1 [DDD71274] | >1 µM | 2 µM | –
15 | Cc1c(N[S+](=O)([O-])c2c(Cl)cc(Br)cc2Cl)cnn1C [DDD88315] | >10 µM | – | 20 µM
16 | Cc1nn(C)c(C)c1N[S+](=O)([O-])c1ccc(N2Cc3ccccc3C2)nc1 [DDD85598] | >1 µM | 18.2 µM | –
17 | Cc1nn(C)c(C)c1N[S+](=O)([O-])c1cccc(Br)c1 [DDD71240] | >1 µM | 8 µM | –
18 | COc1cc(C)c([S+](=O)([O-])Nc2ccc(C)nc2C)c(C)c1C [DDD85634] | >1 µM | – | 27.9 µM
19 | Cc1nn(C)c(C)c1N[S+](=O)([O-])c1ccc(NCCCO)nc1 [DDD73222] | >1 µM | 1 µM | –
20 | Cc1nn(C)c(C)c1N[S+](=O)([O-])c1ccc(-c2cccc(CC3CCN(C)CC3)c2)cc1 [DDD90107] | 0.040 µM | – | 0.004 µM
21 | Cc1nn(C)c(C)c1N[S+](=O)([O-])c1c(Cl)cc(C#CC2CCCCC2)cc1Cl [DDD73479] | >1 µM | > 100 µM | –
22 | COc1ccc([S+](=O)([O-])Nc2c(C)nn(C)c2C)cc1 [DDD71286] | >1 µM | 9.8 µM | –
23 | Cc1nn(C)c(C)c1N[S+](=O)([O-])c1ccc(COc2ccc(C(C)(C)c3ccccc3)cc2)cc1 [DDD73499] | >1 µM | > 100 µM | –
24 | Cc1nn(C)c(C)c1N[S+](=O)([O-])c1ccc(N2CCC(N3CCN(Cc4ccccc4)CC3)C2)nc1 (stereo not drawn) [DDD87760] | >1 µM | – | 34.4 µM
25 | COc1cc(C)c([S+](=O)([O-])Nc2cc[nH]n2)c(C)c1C [DDD71630] | >1 µM | > 100 µM | –
26 | Cc1ccc(C(C)(C)C)cc1[S+](=O)([O-])Nc1c(C)nn(C)c1C [DDD71251] | >1 µM | > 100 µM | –
27 | Cc1nn(C)c(C)c1N[S+](=O)([O-])Cc1ccccc1 [DDD71293] | >1 µM | > 100 µM | –
28 | Cc1nn(C)c(C)c1NS(=O)(=O)c1c(Cl)cc(-c2ccnc(NCCCn3ccnc3)c2)cc1Cl [DDD86308, 2,6-Dichloro-4-[2-(3-imidazol-1-yl-propylamino)-pyridin-4-yl]-N-(1,3,5-trimethyl-1H-pyrazol-4-yl)-benzenesulfonamide] | >1 µM | – | 1 µM
29 | CCC(C)c1ccc([S+](=O)([O-])Nc2c(C)nn(C)c2C)cc1 (stereo not drawn) [DDD71242] | >1 µM | 4.3 µM | –
30 | Cc1nn(C)c(C)c1N[S+](=O)([O-])c1ccc(Cn2cnc3ccccc32)cc1 [DDD73512] | >1 µM | 6.1 µM | –
